Results from US12486267B2, “Imidazo[1,2-A]pyridine and [1,2,4]triazolo[1,5-A]pyridine derivatives as TLR9 inhibitors for the treatment of fibrosis” (BRISTOL-MYERS SQUIBB COMPANY, priority 2020, dated 2025).

Assays:
Type in all cases: cell-based
human TLR9 = target: T1, human TLR9 (Homo sapiens, UniProt Q9NR96); test: TLR9 inhibition reporter assay (HEK-Blue cells, SEAP reporter); details: HEK-Blue cells overexpressing human TLR9; stimulated with ODN2006 5 nM; 22 hour incubation; SEAP readout
T1 sequence (Q9NR96 26-1032): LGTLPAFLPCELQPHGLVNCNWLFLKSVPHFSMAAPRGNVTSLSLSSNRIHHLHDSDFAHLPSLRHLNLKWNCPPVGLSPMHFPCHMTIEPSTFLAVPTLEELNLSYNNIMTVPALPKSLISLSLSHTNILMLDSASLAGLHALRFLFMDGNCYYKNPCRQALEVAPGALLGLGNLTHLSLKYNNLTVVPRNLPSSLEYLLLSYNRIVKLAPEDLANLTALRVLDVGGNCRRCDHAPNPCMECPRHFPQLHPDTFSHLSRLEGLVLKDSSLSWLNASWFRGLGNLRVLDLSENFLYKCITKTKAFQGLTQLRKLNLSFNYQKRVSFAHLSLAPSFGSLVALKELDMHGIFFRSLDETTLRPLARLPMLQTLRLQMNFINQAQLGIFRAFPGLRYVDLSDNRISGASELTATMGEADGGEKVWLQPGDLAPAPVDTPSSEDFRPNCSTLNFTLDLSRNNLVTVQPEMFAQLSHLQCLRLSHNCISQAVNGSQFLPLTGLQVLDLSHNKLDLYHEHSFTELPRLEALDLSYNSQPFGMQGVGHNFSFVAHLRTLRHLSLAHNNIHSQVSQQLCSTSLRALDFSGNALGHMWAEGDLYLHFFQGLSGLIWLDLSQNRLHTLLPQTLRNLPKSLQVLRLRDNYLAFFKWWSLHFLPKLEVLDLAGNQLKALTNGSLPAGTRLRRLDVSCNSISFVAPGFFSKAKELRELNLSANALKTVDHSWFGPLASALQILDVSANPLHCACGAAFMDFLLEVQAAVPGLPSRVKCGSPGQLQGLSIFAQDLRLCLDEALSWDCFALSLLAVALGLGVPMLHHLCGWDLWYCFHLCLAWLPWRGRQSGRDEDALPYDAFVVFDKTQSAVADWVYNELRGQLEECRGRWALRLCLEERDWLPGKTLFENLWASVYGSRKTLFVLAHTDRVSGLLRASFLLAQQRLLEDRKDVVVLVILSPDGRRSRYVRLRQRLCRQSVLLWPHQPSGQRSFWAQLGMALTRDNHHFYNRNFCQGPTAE
How it was run: (§1)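 HEK-Blue cells with an NF-κB/AP-1-driven SEAP reporter were pre-treated 30 min at room temperature with compound (0.05 nM–50 μM), then stimulated with gardiquimod 7.5 μM (TLR7), R848 15.9 μM (TLR8) or ODN2006 5 nM (TLR9). After 22 h at 37 °C, SEAP was read; % inhibition was referenced to agonist+DMSO and known-inhibitor wells.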

human TLR7 = target: T2, human TLR7 (Homo sapiens, UniProt Q9NYK1); test: TLR7 inhibition reporter assay (HEK-Blue cells, SEAP reporter); details: HEK-Blue cells overexpressing human TLR7; stimulated with gardiquimod 7.5 μM; 22 hour incubation; SEAP readout
T2 sequence (Q9NYK1 27-1049): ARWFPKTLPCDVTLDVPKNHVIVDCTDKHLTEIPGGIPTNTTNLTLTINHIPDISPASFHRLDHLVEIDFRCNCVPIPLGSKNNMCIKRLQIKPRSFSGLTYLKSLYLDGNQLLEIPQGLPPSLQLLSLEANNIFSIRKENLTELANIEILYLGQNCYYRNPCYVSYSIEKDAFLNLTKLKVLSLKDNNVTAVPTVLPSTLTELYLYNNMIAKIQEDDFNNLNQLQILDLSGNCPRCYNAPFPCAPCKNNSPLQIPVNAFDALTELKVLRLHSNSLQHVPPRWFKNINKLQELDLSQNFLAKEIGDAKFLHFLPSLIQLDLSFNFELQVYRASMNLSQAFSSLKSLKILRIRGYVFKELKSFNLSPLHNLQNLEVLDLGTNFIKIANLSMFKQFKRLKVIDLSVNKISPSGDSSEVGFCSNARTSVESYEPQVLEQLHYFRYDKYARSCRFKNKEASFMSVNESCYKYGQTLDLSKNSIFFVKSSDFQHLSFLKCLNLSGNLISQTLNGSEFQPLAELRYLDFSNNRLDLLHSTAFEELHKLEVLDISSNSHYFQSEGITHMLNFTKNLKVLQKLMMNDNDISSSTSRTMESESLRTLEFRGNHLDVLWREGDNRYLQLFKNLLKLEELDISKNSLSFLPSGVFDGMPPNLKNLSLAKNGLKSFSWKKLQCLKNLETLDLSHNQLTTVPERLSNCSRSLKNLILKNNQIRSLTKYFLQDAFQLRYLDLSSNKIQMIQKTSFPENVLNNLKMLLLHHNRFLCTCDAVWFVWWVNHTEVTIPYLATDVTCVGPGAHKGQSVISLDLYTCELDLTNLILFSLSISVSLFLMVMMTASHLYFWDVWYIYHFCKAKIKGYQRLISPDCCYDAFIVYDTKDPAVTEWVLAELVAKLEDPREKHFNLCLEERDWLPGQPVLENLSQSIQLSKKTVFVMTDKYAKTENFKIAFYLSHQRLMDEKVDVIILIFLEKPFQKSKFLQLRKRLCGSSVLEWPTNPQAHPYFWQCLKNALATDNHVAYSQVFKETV
How it was run: as §1

human TLR8 = target: T3, human TLR8 (Homo sapiens, UniProt Q9NR97); test: TLR8 inhibition reporter assay (HEK-Blue cells, SEAP reporter); details: HEK-Blue cells overexpressing human TLR8; stimulated with R848 15.9 μM; 22 hour incubation; SEAP readout
T3 sequence (Q9NR97 27-1041): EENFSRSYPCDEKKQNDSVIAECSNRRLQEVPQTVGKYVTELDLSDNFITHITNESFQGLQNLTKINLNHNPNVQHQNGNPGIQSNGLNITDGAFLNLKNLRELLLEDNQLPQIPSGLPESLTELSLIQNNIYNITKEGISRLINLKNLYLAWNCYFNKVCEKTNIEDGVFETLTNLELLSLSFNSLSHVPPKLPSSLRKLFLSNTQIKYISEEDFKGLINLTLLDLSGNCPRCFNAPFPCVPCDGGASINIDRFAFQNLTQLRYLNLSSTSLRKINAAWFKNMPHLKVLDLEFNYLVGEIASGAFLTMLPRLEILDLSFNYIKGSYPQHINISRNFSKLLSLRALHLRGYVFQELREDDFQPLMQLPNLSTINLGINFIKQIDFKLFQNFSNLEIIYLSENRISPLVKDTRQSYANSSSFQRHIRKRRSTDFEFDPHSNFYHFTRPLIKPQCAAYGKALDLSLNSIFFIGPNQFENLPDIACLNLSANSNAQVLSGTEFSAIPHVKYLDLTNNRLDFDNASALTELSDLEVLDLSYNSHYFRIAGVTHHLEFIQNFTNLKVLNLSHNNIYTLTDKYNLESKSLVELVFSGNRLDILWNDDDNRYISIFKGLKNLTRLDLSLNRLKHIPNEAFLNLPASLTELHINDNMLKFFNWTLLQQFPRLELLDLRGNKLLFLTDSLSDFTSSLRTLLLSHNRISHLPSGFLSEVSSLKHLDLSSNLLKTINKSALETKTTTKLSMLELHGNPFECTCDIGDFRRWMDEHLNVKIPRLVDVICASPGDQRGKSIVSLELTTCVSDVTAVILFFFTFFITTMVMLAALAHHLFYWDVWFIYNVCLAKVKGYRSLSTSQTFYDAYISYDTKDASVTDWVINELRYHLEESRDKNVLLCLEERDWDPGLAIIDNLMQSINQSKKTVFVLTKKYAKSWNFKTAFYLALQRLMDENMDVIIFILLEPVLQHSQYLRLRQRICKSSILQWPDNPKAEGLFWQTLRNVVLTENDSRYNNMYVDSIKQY
How it was run: as §1

IC50 (human TLR9) | IC50 (human TLR7) | IC50 (human TLR8) | Structure (SMILES)
0.064 µM | 3.6 µM | > 25 µM | COc1ccc(-c2cn3c(n2)CC[C@@H](C2CCN(C4CC5CCC(C4)N5CC(C)C)CC2)C3)cc1OC (single isomer, unassigned) [Example 77]
0.106 µM | > 50 µM | 23 µM | CC(C)N1CCC(N2CCC(c3ccc4nc(-c5ccc(S(C)(=O)=O)cc5)cn4c3F)CC2)CC1 [Example 73, 5-fluoro-6-(1′-isopropyl-[1,4′-bipiperidin]-4-yl)-2-(4-(methylsulfonyl)phenyl) imidazo[1,2-a]pyridine]
0.1 µM | 11 µM | > 50 µM | CC(C)CN1CCC(N2CCC(c3cc(F)c4nc(-c5ccc(S(C)(=O)=O)cc5)cn4c3)CC2)CC1 [Example 107, 8-fluoro-6-(1′-isobutyl-[1,4′-bipiperidin]-4-yl)-2-(4-(methylsulfonyl)phenyl) imidazo[1,2-a]pyridine]
0.272 µM | 30 µM | > 50 µM | COc1ccc(-c2cn3c(n2)CCC(C2CCN(C4CC5(C4)CN(C(C)C)C5)CC2)C3)cc1OC (single isomer, unassigned) [Example 46, 2-(3,4-dimethoxyphenyl)-6-(1-(2-isopropyl-2-azaspiro[3.3]heptan-6-yl)piperidin-4-yl)-5,6,7,8-tetrahydroimidazo[1,2-a]pyridine]
0.062 µM | 14.3 µM | > 50 µM | Cc1cc(C2CCN(C3CCN(C(C)C)CC3)CC2)cc2nc(-c3ccc(S(C)(=O)=O)cc3)cn12 [Example 66, 7-(1′-isopropyl-[1,4′-bipiperidin]-4-yl)-5-methyl-2-(4-(methylsulfonyl)phenyl) imidazo[1,2-a]pyridine]
0.028 µM | 4.4 µM | > 25 µM | Cc1cc(C2CCN(C3CC4CCC(C3)N4CC3CC3)CC2)cn2cc(-c3ccc(S(C)(=O)=O)cc3)nc12 (single isomer, unassigned) [Example 87, 6-(1-(8-(cyclopropylmethyl)-8-azabicyclo[3.2.1]octan-3-yl)piperidin-4-yl)-8-methyl-2-(4-(methylsulfonyl)phenyl) imidazo[1,2-a]pyridine]
0.046 µM | 3 µM | > 25 µM | COc1ccc(-c2cn3c(n2)CC[C@@H](C2CCN(C4CC5CCC(C4)N5C(C)C)CC2)C3)cc1OC (single isomer, unassigned) [Example 137]
0.038 µM | 2.8 µM | > 50 µM | COc1ccc(-c2cn3c(n2)CCC(C2CCN(C4CCN(CC(C)C)CC4)CC2)C3)cc1OC (single isomer, unassigned) [Example 32, 2-(3,4-dimethoxyphenyl)-6-(1′-isobutyl-[1,4′-bipiperidin]-4-yl)-5,6,7,8-tetrahydroimidazo[1,2-a]pyridine]
0.71 µM | 6.3 µM | 17 µM | Cc1cc(-c2ccc(N3CCN(C4CCC4)CC3)cc2)cn2cc(-c3ccc(S(C)(=O)=O)cc3)nc12 [Example 102, 6-(4-(4-cyclobutylpiperazin-1-yl)phenyl)-8-methyl-2-(4-(methylsulfonyl)phenyl) imidazo[1,2-a]pyridine]
0.047 µM | > 50 µM | > 50 µM | COc1ccc(-c2cn3c(n2)CCC(C2CCN(C4CC5(C4)CN(C(C)C)C5)CC2)C3)cc1OC (single isomer, unassigned) [Example 47, 2-(3,4-dimethoxyphenyl)-6-(1-(2-isopropyl-2-azaspiro[3.3]heptan-6-yl)piperidin-4-yl)-5,6,7,8-tetrahydroimidazo[1,2-a]pyridine]
0.022 µM | 2.3 µM | > 50 µM | COc1ccc(-c2cn3cc(C4CCN(C5CC6(C5)CN(C5CC5)C6)CC4)cc(C)c3n2)cc1OC [Example 17, 6-(1-(2-cyclopropyl-2-azaspiro[3.3]heptan-6-yl)piperidin-4-yl)-2-(3,4-dimethoxyphenyl)-8-methylimidazo[1,2-a]pyridine]

Structure (SMILES) | IC50 (human TLR9) | IC50 (human TLR7) | IC50 (human TLR8)
Cc1cc(C2CC3CCC(C2)N3C2CCN(C(C)C)CC2)cn2nc(-c3ccc(S(C)(=O)=O)cc3)nc12 (stereo not drawn) [Example 160, 6-(8-(1-isopropylpiperidin-4-yl)-8-azabicyclo[3.2.1]octan-3-yl)-8-methyl-2-(4-(methylsulfonyl)phenyl)-[1,2,4]triazolo[1,5-a]pyridine] | 0.044 µM | 6.9 µM | > 50 µM
COc1ccc(-c2cn3cc(C4CC5CCC(C4)N5C4CCN(C5CC5)CC4)cc(C)c3n2)cc1OC (single isomer, unassigned) [Example 25, 6-(8-(1-cyclopropylpiperidin-4-yl)-8-azabicyclo[3.2.1]octan-3-yl)-2-(3,4-dimethoxyphenyl)-8-methylimidazo[1,2-a]pyridine] | 0.016 µM | 3.5 µM | 20 µM
